In patent US6528276B1, “Fusion proteins, DNA molecules, vectors, and host cells useful for measuring protease activity” (priority 1998, dated 2003):

Key:
[1] = test system: fusion protein EdR5A/5B (i.e., the protein encoded by VgRXR-5A/5B); test: Ligand-induced activation of the VgRXR-5A/5B fusion protein, luciferase reporter in COS cells without protease; assay type: cell-based
Protocol: (§1) COS African green monkey kidney cells were plated at approximately 150,000 cells/well in a 6-well plate. The next day, approximately 3.6 μg plasmid DNA was dissolved in 100 μl of Dulbecco's modified Eagle's media-Gibco BRL (DMEM), combined with 29 μl of Superfect reagent (Qiagen), and then mixed by pipetting. The mixture was incubated at room temperature for ten minutes.
(§2) The amounts of DNA typically used in each experiment was as follows: 0.6 μg of pIND-Luc, 0.6 μg of pVgRXR-5A/5B or pVgRXR-5A**5B, and 0-2.4 μg of pSRα-NS3-4A or pSRα-NS3-4A(S1165A) or pSRα.
(§3) Next 600 μl of DMEM with v/v 10% fetal bovine serum (10% FBS-DMEM) was added to the DNA mixture and mixed by pipetting. The cells in the 6-well plate were washed with 2.5 ml phosphate-buffered saline (PBS). The PBS was removed from the cells and replaced by the DNA mixture. The cells were incubated in the DNA mixture for three hours at 37° C. in a 5% CO2 incubator.
After incubation, the cells were washed with PBS. The PBS was removed and 10% FBS-DMEM was added to the cells. The cells were incubated in 10% FBS-DMEM overnight at 37° C. in a 5% CO2 incubator.
On the next day, an exogenous ligand was added to the cells to induce transcription of the reporter gene. Specifically, the 10% FBS-DMEM was aspirated off the cells and replaced with a 10% FBS-DMEM solution containing a concentration of 1-10 μM muristerone A or 1-10 μM ponasterone A (Invitrogen, United Kingdom). In some cases, a protease inhibitor dissolved in dimethylsulfoxide(DMSO) was also added to the cells for a final concentration of 1-40 μM. The cells were incubated with muristerone A or ponasterone A for 24 hours at 37° C. in a 5% CO2 incubator.
The following day, the cells were washed with PBS. The activity of the luciferase protein was measured using a luciferase assay kit (Promega). Specifically, the cells were lysed in 250 μl of Cell Culture Lysis Reagent. The cells were scraped from the plate and transferred to a microfuge tube. The extract was spun at 12,000×g for 5 seconds. Twenty microliters of each sample was added to 100 μl of Luciferase Assay Reagent. The light produced by the reaction of the luciferase with the Reagent was measured in a luminometer and was reported as relative light units (RLU).
The plasmid pIND-Luc (0.6 μg) was cotransfected with pVgRXR-5A/5B (0.6 μg) in the absence or presence of 1.8 μg of pSRαNS3-4A. On the following day, the cells were incubated with varying amounts of ponasterone A, a ligand which induces the neterodimerization of ecdysone receptor with the mammalian […], RXR. The cells were lysed and assayed for luciferase activity as described previously. The results are depicted in FIG. 7. […]

[2] = test system: pIND-Luc luciferase reporter; test: Muristerone A-induced transactivation of pIND-Luc by expressed fusion proteins in COS cells; assay type: cell-based, African green monkey; conditions: 1 μM muristerone A
Protocol: as §1, §2, §3
After incubation, the cells were washed with PBS. The PBS was removed and 10% FBS-DMEM was added to the cells. […]
The following day, the cells were washed with PBS. The activity of the luciferase protein was measured using a luciferase assay kit (Promega). […] The light produced by the reaction of the luciferase with the Reagent was measured in a luminometer and was reported as relative light units (RLU). […]

C[S+](C)[O-] [DMSO, dimethylsulfoxide]
effect on ponasterone A-induced luciferase activity ([1]; DMSO concentrations up to 1% (v/v), 5 μM ponasterone A, with or without pSRαNS3-4A): little or no effect

CC(C)CC[C@@H](O)[C@](C)(O)[C@H]1CC[C@@]2(O)C3=CC(=O)[C@@H]4C[C@@H](O)[C@@H](O)C[C@]4(C)[C@H]3CC[C@]12C [ponasterone A]
activation of the fusion protein ([1]; absence of the protease NS3-4A): effective at activating the fusion protein | induction of transcription compared with muristerone A ([1]; in these assays): equally effective | ponasterone A concentration giving greatest activation of the fusion protein ([1]; tested at 1, 3.3, 10, 33, 100 μM, COS cells): 3.3 to 10 µM

B1: pVgRXR-5A(Stop)5B: control fusion protein with tandem stop codons in the 5A/5B cleavage site (SEQ ID NO:22) (protein)
chain: MAPPTDVSLGDELHLDGEDVAMAHADALDDFDLDMLGDGDSPGPGFTPHDSAPYGALDMADFEFEQMFTDALGIDEYGGKLLGTGADTEDVVCC
muristerone A-induced luciferase activity of the expressed fusion protein ([2]; 24 hours, no protease, FIG. 4): negligible activity

B2: VgRXR: Invitrogen vector product: modified ecdysone receptor/VP16 fusion (VgEcR) plus RXR (protein)
chain: TPTTPLHLQQNLGGAGGGGIGGMGILHHANGTPNGLIGVVGGGGGVGLGVGGGGVGGLGMQHTPRSDSVNSISSGRDDLSPSSSLNGYSANESCDAKKSKKGPAPRVQEELCLVCGDRASGYHYNALTCEGCKGFFRRSVTKSAVYCCKFGRACEMDMYMRRKCQECRLKKCLAVGMRPECVVPENQCAMKRREKKAQKEKDKMTTSPSSQHGGNGSLASGGGQDFVKKEILDLMTCEPPQHATIPLLPDEILAKCQARNIPSLTYNQLAVIYKLIWYQDGYEQPSEEDLRRIMSQPDENESQTDVSFRHITEITILTVQLIVEFAKGLPAFTKIPQEDQITLLKACSSEVMMLRMARRYDHSSDSIFFANNRSYTRDSYKMAGMADNIEDLLHFCRQMFSMKVDNVEYALLTAIVIFSDRPGLEKAQLVEAIQSYYIDTLRIYILNRHCGDSMSLVFYAKLLSILTELRTLGNQNAEMCFSLKLKNRKLPKFLEEIWDVHAIPPSVQSHLQITQEENERLERAERMRASVGGAITAGIDCDSASTSAAAAAAQHQPQPQPQPQPSSLTQNDSQHQTQPQLQPQLPPQLQGQLQPQLQPQLQTQLQPQIQPQPQLLPVSAPVPASVTAPGSLSAVSTSSEYMGGSAAIGPITPATTSSITAAVTASSTTSAVPMGNGVGVGVGVGGNVSMYANAQTAMALMGVALHSHQEQLIGGVAVKSEHSTTA
modifications: left off: large carriers
notes: Invitrogen vector product: modified ecdysone receptor/VP16 fusion (VgEcR) plus RXR
change in luciferase activity when coexpressed with the protease NS3-4A ([2]; increasing amounts of pSRαNS3-4A): little or no change
